{"source": "paper PMC12903969", "about": "“Discovery of a Novel and Potent Kir4.1 Inhibitor as a Safe and Rapid‐Onset Antidepressant Agent in Mice” (Advanced Science, 2025)", "key": {"[1]": {"target": "T1, Kir4.1 T155A (Homo sapiens, UniProt P78508, T155A)", "T1 construct": "expressed in transfected cells; host or cells: CHO-K1", "T1 sequence (P78508 whole entry T155A)": "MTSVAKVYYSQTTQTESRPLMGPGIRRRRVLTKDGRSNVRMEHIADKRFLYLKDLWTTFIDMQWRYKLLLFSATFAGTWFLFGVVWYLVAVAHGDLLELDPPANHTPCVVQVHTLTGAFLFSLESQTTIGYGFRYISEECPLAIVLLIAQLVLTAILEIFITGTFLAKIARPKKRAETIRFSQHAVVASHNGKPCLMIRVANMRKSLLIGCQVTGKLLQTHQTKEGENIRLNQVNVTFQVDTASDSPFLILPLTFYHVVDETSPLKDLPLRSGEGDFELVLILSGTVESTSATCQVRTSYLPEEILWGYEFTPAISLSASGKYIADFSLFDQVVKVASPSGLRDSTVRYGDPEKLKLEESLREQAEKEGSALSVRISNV", "experiment": "Whole-cell patch clamp, Kir4.1 point mutant T155A", "type": "cell-based", "settings": "JX3212 3 µM (Fig 2D)", "experimental": "(§1) Plasmids encoding WT human potassium channels Kir1.1, Kir2.1, Kir2.2, Kir4.1, and Kir4.2 were obtained from the Beijing Genomics Institute. All point mutations were constructed using the QuickChange II Site‐Directed Mutagenesis Kit (Stratagene) and subsequently verified by sequencing.\nCHO‐K1 cells were maintained in DMEM/F12 growth medium containing 10% fetal bovine serum. Plasmids encoding the target genes (3600 ng) and enhanced green fluorescent protein (400 ng) were cotransfected into cells using Lipofectamine 2000 (Invitrogen) in accordance with the manufacturer's instructions. Cells were seeded onto poly‐d‐lysine (PDL)‐coated glass coverslips 1 h prior to electrophysiological recordings. […]\nWhole‐cell patch‐clamp recordings were obtained either in transiently transfected CHO‐K1 cells or in primary cultured astrocytes at room temperature using standard patch‐clamp techniques with an Axopatch‐700B amplifier (Axon Instruments). […] Macroscopic currents generated by expressed potassium channels were recorded under the voltage‐clamp conditions with an internal pipette solution composed of (in mM): 140 KCl, 5 NaCl, 1 CaCl2, 1 MgCl2, 10 HEPES, and 10 EGTA, pH 7.2 adjusted with KOH. […] Astrocytic resting membrane potentials were recorded under current‐clamp conditions (I = 0 pA) using standard internal and external solutions, determined immediately after achieving whole‐cell mode."}, "[2]": {"target": "T2, GluN1/GluN2B NMDA receptor (Homo sapiens, UniProt Q05586+Q13224)", "T2 construct": "expressed in transfected cells", "T2 sequence (Q13224 27-1484, other chains not shown)": "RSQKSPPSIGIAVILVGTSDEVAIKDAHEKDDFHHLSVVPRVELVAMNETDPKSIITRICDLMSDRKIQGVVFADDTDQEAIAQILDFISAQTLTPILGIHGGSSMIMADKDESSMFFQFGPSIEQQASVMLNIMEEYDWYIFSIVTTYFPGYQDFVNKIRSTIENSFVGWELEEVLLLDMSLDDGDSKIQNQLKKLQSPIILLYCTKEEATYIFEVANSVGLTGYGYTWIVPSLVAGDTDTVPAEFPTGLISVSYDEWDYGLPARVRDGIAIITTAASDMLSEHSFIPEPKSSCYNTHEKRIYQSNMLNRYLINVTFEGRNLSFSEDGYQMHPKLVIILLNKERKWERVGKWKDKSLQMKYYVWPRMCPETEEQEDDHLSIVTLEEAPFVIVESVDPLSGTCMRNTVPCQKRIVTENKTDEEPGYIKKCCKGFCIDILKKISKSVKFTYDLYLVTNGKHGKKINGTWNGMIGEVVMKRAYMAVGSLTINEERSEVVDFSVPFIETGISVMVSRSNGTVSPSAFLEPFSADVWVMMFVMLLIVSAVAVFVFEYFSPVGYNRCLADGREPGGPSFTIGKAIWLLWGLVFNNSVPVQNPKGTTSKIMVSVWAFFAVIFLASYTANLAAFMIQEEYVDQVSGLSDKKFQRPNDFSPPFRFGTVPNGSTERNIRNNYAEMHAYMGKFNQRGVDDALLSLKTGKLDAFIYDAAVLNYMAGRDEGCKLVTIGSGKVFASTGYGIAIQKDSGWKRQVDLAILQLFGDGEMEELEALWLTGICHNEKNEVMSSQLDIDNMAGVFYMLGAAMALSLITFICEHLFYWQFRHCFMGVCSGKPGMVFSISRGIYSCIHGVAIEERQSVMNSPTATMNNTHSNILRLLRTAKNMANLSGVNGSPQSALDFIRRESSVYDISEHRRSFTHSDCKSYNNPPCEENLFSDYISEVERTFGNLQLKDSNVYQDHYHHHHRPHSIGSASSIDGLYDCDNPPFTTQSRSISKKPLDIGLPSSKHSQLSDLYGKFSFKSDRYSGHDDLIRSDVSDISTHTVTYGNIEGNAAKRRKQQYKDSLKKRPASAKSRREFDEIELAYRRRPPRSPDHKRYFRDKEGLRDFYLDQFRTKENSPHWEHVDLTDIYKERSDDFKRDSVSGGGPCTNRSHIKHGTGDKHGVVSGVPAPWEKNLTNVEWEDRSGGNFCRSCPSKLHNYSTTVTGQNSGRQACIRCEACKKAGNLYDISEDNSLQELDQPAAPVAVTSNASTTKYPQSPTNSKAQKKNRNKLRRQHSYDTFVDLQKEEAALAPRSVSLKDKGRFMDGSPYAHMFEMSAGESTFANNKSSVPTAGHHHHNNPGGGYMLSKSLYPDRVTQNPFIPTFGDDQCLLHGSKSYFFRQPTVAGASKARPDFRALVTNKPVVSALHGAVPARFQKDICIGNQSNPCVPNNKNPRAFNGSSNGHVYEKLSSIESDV", "experiment": "Patch clamp of GluN1/GluN2B NMDA receptors in stable HEK293T cells", "type": "cell-based", "from_the_text": "For recording of GluN1/GluN2B NMDA receptors, HEK293T cells stably expressing GluN1 and GluN2B subunits were voltage‐clamped at −60 mV. […] The pipette solution contained (in mM):115 CsF, 10 CsCl, 10 HEPES and 10 BAPTA (pH 7.2 adjusted by CsOH). The bath solution contained (in mM): 140 NaCl, 2.8 KCl, 1 CaCl2, 10 HEPES and 20 sucrose (pH 7.4 adjusted with NaOH)."}, "[3]": {"target": "T3, Kir2.1 (Homo sapiens, UniProt P63252)", "T3 construct": "host or cells: CHO-K1", "T3 sequence (P63252 1-427)": "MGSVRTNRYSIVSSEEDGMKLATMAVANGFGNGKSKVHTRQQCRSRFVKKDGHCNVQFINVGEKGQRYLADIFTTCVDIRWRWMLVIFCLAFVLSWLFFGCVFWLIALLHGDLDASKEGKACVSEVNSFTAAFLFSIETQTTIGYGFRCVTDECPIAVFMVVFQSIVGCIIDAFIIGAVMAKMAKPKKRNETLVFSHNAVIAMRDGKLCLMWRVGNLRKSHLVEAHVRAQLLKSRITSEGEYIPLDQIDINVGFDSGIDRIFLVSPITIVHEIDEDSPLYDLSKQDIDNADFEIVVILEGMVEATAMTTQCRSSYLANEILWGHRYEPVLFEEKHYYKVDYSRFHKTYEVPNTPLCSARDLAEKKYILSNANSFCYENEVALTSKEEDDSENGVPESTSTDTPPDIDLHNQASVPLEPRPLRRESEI", "experiment": "Whole-cell patch clamp, Kir2.1", "type": "cell-based", "experimental": "as §1\n(§2) CHO‐K1 cells were maintained in DMEM/F12 growth medium containing 10% fetal bovine serum. Plasmids encoding the target genes (3600 ng) and enhanced green fluorescent protein (400 ng) were cotransfected into cells using Lipofectamine 2000 (Invitrogen) in accordance with the manufacturer's instructions. Cells were seeded onto poly‐d‐lysine (PDL)‐coated glass coverslips 1 h prior to electrophysiological recordings. All cells were cultured under standard conditions of 5% CO2 at 37 °C.\n(§3) Whole‐cell patch‐clamp recordings were obtained either in transiently transfected CHO‐K1 cells or in primary cultured astrocytes at room temperature using standard patch‐clamp techniques with an Axopatch‐700B amplifier (Axon Instruments). The signals were filtered at 2 kHz and sampled at 20 kHz using the Digidata 1440A interface (Axon Instruments). The resistance of borosilicate glass pipettes was typically 2–4 MΩ when filled with the internal solution. Drug application was facilitated using a BPS perfusion system (ALA Scientific Instruments). Macroscopic currents generated by expressed potassium channels were recorded under the voltage‐clamp conditions with an internal pipette solution composed of (in mM): 140 KCl, 5 NaCl, 1 CaCl2, 1 MgCl2, 10 HEPES, and 10 EGTA, pH 7.2 adjusted with KOH. The external solution contained (in mM): 140 NaCl, 5 KCl, 2 CaCl2, 1 MgCl2, 10 glucose, and 10 HEPES, pH 7.4 adjusted with NaOH. Currents were elicited with a hyperpolarized voltage at −120 mV from the holding potential of −80 mV, followed by a ramp voltage depolarizing to +50 mV. Astrocytic resting membrane potentials were recorded under current‐clamp conditions (I = 0 pA) using standard internal and external solutions, determined immediately after achieving whole‐cell mode."}, "[4]": {"target": "T4, Kir4.1 I159A (Homo sapiens, UniProt P78508, I159A)", "T4 construct": "expressed in transfected cells; host or cells: CHO-K1", "T4 sequence (P78508 1-379 I159A)": "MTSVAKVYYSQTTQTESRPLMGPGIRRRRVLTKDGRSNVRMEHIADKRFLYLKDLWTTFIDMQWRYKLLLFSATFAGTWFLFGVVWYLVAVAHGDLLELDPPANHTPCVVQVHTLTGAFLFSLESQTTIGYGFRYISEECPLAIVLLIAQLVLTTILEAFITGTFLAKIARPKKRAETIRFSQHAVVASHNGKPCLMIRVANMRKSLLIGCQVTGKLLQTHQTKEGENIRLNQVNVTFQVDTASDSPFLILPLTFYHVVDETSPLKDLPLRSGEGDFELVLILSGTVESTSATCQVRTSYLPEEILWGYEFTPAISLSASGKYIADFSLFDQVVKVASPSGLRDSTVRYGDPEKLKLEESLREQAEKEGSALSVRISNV", "experiment": "Whole-cell patch clamp, Kir4.1 point mutant I159A", "type": "cell-based", "experimental": "as §1, §2, §3"}, "[5]": {"system": "C57BL/6J mice", "experiment": "Novelty-suppressed feeding test (NSFT)", "type": "in vivo", "experimental": "The mice were individually housed in new cages and deprived of food for 24 h. The testing equipment was a brightly lit plastic box measuring 40 × 40 × 30 cm^3 with a light intensity of 1100–1200 lux. Each mouse was positioned in a corner of the device with one food pellet located at the center. The latency to start chewing food was recorded within 5 min. Immediately thereafter, the mice were placed back in their home cage with pre‐measured food, and the amount consumed in the next 5 min was used as a baseline to account for appetite changes that might affect the outcome."}}, "note": "“And” between values parts separate entries of the source, which are not always exact repeats. Equal values may be shown once. Read-outs that look alike come from different tables or passages of the source.", "data": [{"smiles": "c1ccc2c(c1)oc1ccc(Nc3ccnc(NCCCN4CCOCC4)n3)cc12", "note": "[JX3212, N^4-(dibenzo[b,d]furan-2-yl)-N^2-(3-morpholinopropyl)pyrimidine-2,4-diamine]", "values": [{"measurement": "Mutation: T155A inhibition, single recordings", "setting": "[1]", "value": "94.2403 and 81.3915 and 95.4304"}, {"measurement": "inhibition at 3 µM", "setting": "[1]; read-out: Mutation: T155A inhibition, single recordings", "value": 94.3, "unit": "%"}, {"measurement": "IC50", "setting": "[2]", "value": 23.7, "unit": "µM"}, {"measurement": "GLUN1/N2B inhibition, single recordings", "setting": "[2]; concentration 10", "value": "16.1554 and 31.4381 and 16.8072 and 24.8566"}, {"measurement": "GLUN1/N2B inhibition, single recordings", "setting": "[2]; concentration 30", "value": "75.9494 and 77.336 and 42.6087"}, {"measurement": "GLUN1/N2B inhibition, single recordings", "setting": "[2]; concentration 50", "value": "84.1069 and 85.4244 and 96.0913"}, {"measurement": "GLUN1/N2B inhibition, single recordings", "setting": "[2]; concentration 100 (unit not given)", "value": "91.8425 and 90.7749 and 99.6717 and 97.1777"}, {"measurement": "GLUN1/N2B inhibition, single recordings", "setting": "[2]; concentration 300μ", "value": "98.8477 and 99.3957 and 98.8626"}, {"measurement": "inhibition at 3 µM", "setting": "[3]; 3 µM, mean ± SEM, read-out: inhibition of Kir2.1", "value": "49.9 ± 4.35", "unit": "%"}, {"measurement": "Kir isoforms: Kir2.1 inhibition, single recordings", "setting": "[3]; JX3212 3 µM (Fig 2A)", "value": "46.776 and 54.8667"}, {"measurement": "inhibition at 3 µM", "setting": "[3]; JX3212 3 µM (Fig 2A), read-out: Kir isoforms: Kir2.1 inhibition, single recordings", "value": 48.1, "unit": "%"}, {"measurement": "inhibition at 3 µM", "setting": "[4]; 3 µM, mean ± SEM, read-out: current inhibition, Kir4.1 I159A", "value": "43.9 ± 6.15", "unit": "%"}, {"measurement": "Mutation: I159A inhibition, single recordings", "setting": "[4]; JX3212 3 µM (Fig 2D)", "value": "52.8569 and 40.7357 and 46.4245 and 36.569"}, {"measurement": "inhibition at 3 µM", "setting": "[4]; JX3212 3 µM (Fig 2D), read-out: Mutation: I159A inhibition, single recordings", "value": 42.9, "unit": "%"}, {"measurement": "effective threshold dose in NSFT", "setting": "[5]; acute administration, doses 1, 3, 10 mg kg−1", "value": 10, "unit": "mg/kg"}, {"measurement": "food intake in home cage after NSFT (in words)", "setting": "[5]; repeated administration, vs vehicle", "value": "remained comparable to that in the vehicle group"}, {"measurement": "Food intake in home cage, single mice", "setting": "[5]; repeated doses, 3 mg/kg (Fig 3F), 3 mg/kg", "value": "0.14 and 0.11 and 0.12 and 0.1 and 0.09"}, {"measurement": "NSFT antidepressant-like response after repeated administration (in words)", "setting": "[5]; seven days, imipramine 15 mg kg−1, JX3212 3/10 mg kg−1", "value": "elicited significant antidepressant‐like responses"}, {"measurement": "NSFT latency to feed (in words)", "setting": "[5]; single dose 10 mg kg−1 i.p., 1 h after administration", "value": "significantly reduced the latency to feed"}]}]}
